# Experimental data from patent publication US20140363810A1, “METHOD OF MEASURING HUMAN CYP3A INDUCIBILITY” (SEKISUI MEDICAL CO., LTD., priority 2002, published 2014).
# Columns and labels:
# [1] = tested on: CYP3A4 inducibility (luciferase reporter AdCYP3A4-362-7K); assay: in vitro reporter assay, cultured cells infected with virus (A) (AdCYP3A4-362-7K); settings: 10 μM, without virus (B)
# Procedure: (§1) A recombinant adenovirus was constructed through the following process.
# (§2) Briefly, cells were seeded in a 24-well plate in an amount of 2.0×10^5 cells per well. On the following day; i.e., day 1, the cells were treated with a drug. On day 2, the drug-treated cells were infected with virus, and, 48 hours after viral infection, the cells were recovered. The recovered cells were lysed by use of a reporter lysis buffer (RLB), and the luciferase activity of the lysate was measured.
# (§3) Next, virus (B) (AdhPXR) was employed to thereby cause strong expression of hPXR.
# [2] = tested on: CYP3A4 inducibility (luciferase reporter, CYP3A4 -362 to +11 fragment); assay: in vitro reporter (luciferase) assay, cultured cells infected with AdCYP3A4-362 virus; settings: 10 μM in DMSO, human liver-cancer-derived cultured cells
# Procedure: as §1, §2
# All these drugs are known to elicit CYP3A4 induction when administered to humans.
# [3] = tested on: CYP3A4 inducibility (luciferase reporter AdCYP3A4-362); assay: in vivo assay, luciferase activity in liver S-9 of mice given AdCYP3A4-362 virus; settings: 100 mg/kg intraperitoneally once a day for three days, liver two days after virus
# Procedure: (§4) The initial plan for viral administration was an intravenous route through the tail vein. […] Therefore, the route was changed to intraperitoneal administration so that the animal could not acutely respond to the virus. […] Two days after virus administration, each animal was dissected to remove the organ of interest (liver). The liver was homogenized and centrifuged at 9,000×g. Luciferase activity of the supernatant (S-9) was measured (FIG. 4).
# [4] = tested on: CYP3A4 inducibility (luciferase reporter AdCYP3A4-362-7K with hPXR expression); assay: in vitro reporter assay, cultured cells infected with virus (A) (AdCYP3A4-362-7K) and virus (B) (AdhPXR); settings: 10 μM, virus (A) AdCYP3A4-362-7K plus virus (B) AdhPXR
# Procedure: as §1, §2, §3
# [5] = tested on: human CYP3A4 inducibility (luciferase reporter AdCYP3A4-362-7K with human PXR expression); assay: in vivo assay, mice infected with virus (A) (AdCYP3A4-362-7K) and virus (B) (AdhPXR); settings: 100 mg/kg/day×3; virus (A) AdCYP3A4-362-7K, co-administration with virus (B) per FIG. 8
# Procedure: as §4
structure (smiles),measurement,setting,value
Clc1ccccc1C(c1ccccc1)(c1ccccc1)n1ccnc1 [clotrimazole],induction of luciferase activity,[1],21 times
same,elevated luciferase activity level,[2],about eight
same,increase of luciferase activity in mouse liver S-9 compared with control,[3],about nine
same,luciferase activity relative to non-treatment,[4],60 times
same,attained inducibility (transcription activation) in mice infected with virus (A),[5],"1,000 times"
